Laboratory results: patent publication US20180318263A1 (The Regents of the University of Colorado, a body corporate, priority 2016, published 2018)
Entries after “also recorded” stand apart in the source; their conditions may differ.

Tests used:
LNCaP-Enza-Res cells = experiment: growth of enzalutamide-resistant LNCaP cells (MTS); type: cell-based, human; settings: for growth of enzalutamide-resistant LNCaP cells versus parental: single fat oxidation inhibitor, 48 hours
From the text: FIG. 16 is a set of four graphs split over two pages. […] Data is normalized to the vehicle treatment (no drugs). […] Data is normalized to the vehicle treatment (no drugs). […] Data is normalized to the vehicle treatment (no drugs). […] Data is normalized to the vehicle treatment (no drugs).
FIG. 17 is a pair of graphs showing the effects of treatment on the indicated cells. […] Data is normalized to the vehicle treatment (no drugs). […] Both concentrations are in microMolar (μM).
(§1) Parental LNCaP and VCaP cells treated with vehicle were used as their corresponding controls.

[1] = tested on: tumors of human cells resistant to enzalutamide; experiment: enzalutamide-resistant human tumors in nude mice treated with ranolazine; type: in vivo; settings: injections started on day 5
TRAMPC1 cells = experiment: mouse TRAMPC1 cell growth / clonogenic assay; type: cell-based; settings: for sensitivity of mouse prostate cancer cells: FIG. 12; for sensitivity to each drug treatment alone: TRAMPC1, enzalutamide (5 μM)
From the text: FIG. 10 is an image and a graph showing mouse TRAMPC1 cell growth assay. […] Representative crystal violet stains are shown above graph.
These cells are important model because they can be placed in syngeneic C57B1 mice with a complete immune system.
This cell line from mouse PCa allows the evaluation of treatments in vivo, using immune-competent […] mice, which are syngenic with the TRAMPC1 cells.

VCaP-Enza-Res cells = experiment: growth of enzalutamide-resistant VCaP cells; type: cell-based, human; settings: single fat oxidation inhibitor, 48 hours
From the text: as §1

[2] = tested on: enzalutamide-resistant PCa cells; experiment: colony formation of enzalutamide-resistant versus parental PCa cells; type: cell-based
From the text: Colony formation was examined after 2 weeks by crystal violet stain and analyzed with image J.

LNCaP CPT1A-KD clones = experiment: growth of LNCaP CPT1A-KD clones with enzalutamide; type: cell-based, human; settings: enzalutamide (MDV3100) versus control clone
Procedure: (C) Relative growth of LNCaP-KD clones compared to control (NTshRNA) with Enza treatment. *p<0.001, compared to control treatment. ap<0.01 compared to control clone. (NTshRNA—left; CPT1Ash1—center; and CPT1 Ash2 at each timepoint for FIGS. 6A and 6B.)
Data is normalized to the vehicle (0 μM, no drug) treatment. Data represents mean±SD.
Etomoxir targets CPT1. […] It is possible that the decrease in AR observed with etomoxir is due to off-targets effects of the drug (besides CPT1), and/or the cells may need to be studied at earlier time points when apoptotic and ER stress mechanisms have not been set in motion.

PCa cells = experiment: 14C-lipid oxidation in PCa cells; type: cell-based
primary PCa cells = primary PCa cells derived from prostatectomies treated with etomoxir; type: cell-based, human; settings: data not shown
From the text: The effects of etomoxir in primary PCa cells derived from prostatectomies carried out at University of Colorado hospital were examined.

PCa cell lines = experiment: growth/viability of PCa cell lines with etomoxir; type: cell-based, human; settings: etomoxir (75 μM in FIG. 2D), p<0.01
From the text: (§2) (E) Stain of xenografts slices with phospho-4EBP1 antibody. (F) Western blot of LNCaP cells treated with vehicle (“V”) or etomoxir (“E”), C-Casp3=cleaved-caspase 3. (G) Putative diagram of mTOR signaling pathway.

BPH-1 and WPMY-1 cells = experiment: viability of benign prostate cells with etomoxir; type: cell-based; settings: etomoxir 75 μM
From the text: as §2

VCaP tumor = experiment: VCaP xenograft tumor growth in mice treated with etomoxir; type: in vivo; settings: VCaP xenografts, etomoxir 40 mg/kg/day for 21 days, p<0.05
From the text: as §2

androgen receptor (AR) = experiment: AR gene expression and Western blot in LNCaP cells; type: cell-based, human; settings: etomoxir 48 hours, p<0.05
Procedure: (A) Relative AR gene expression after vehicle (“V”) or etomoxir (“E”) treatment in LNCaP cells. ARfl=full length AR; ARv7=AR variant 7; AR total=all AR isoforms; PSA=prostate specific antigen; NKX3.1=Homeodomain-containing transcription factor regulated by androgens. […] (B) Western blot of full length AR and ARV7 variant in LNCaP cells treated with etomoxir for 48 hours.

mTOR = experiment: ceramides and mTOR signaling after etomoxir; type: cell-based
From the text: as §2

LNCaP cells = experiment: ER stress markers in etomoxir-treated LNCaP cells; type: cell-based, human
From the text: (C) Phosphorylation of the α-subunit of the translation initiation factor eIF2 (p-eIF2a) and expression of LC3 cleavage marker of autophagy. (D) Agarose gel showing the spliced (activated, 447 bp) XBP1 factor that regulates the response to ER stress.

COc1ccccc1OCC(O)CN1CCN(CC(=O)Nc2c(C)cccc2C)CC1 (stereo not shown) [ranolazine]
growth of enzalutamide-resistant LNCaP cells versus parental (LNCaP-Enza-Res cells): more sensitive to ranolazine than their corresponding parental controls | growth of enzalutamide-resistant LNCaP cells versus parental (LNCaP-Enza-Res cells; listed as Ranolazine): inhibits growth | sensitivity of enzalutamide-resistant tumors [1]: show signs of sensitivity | sensitivity of mouse prostate cancer cells (TRAMPC1 cells): sensitive | sensitivity to each drug treatment alone (TRAMPC1 cells): not very sensitive | growth of enzalutamide-resistant VCaP cells versus parental (VCaP-Enza-Res cells): more sensitive to ranolazine than their corresponding parental controls | growth of enzalutamide-resistant VCaP cells versus parental (VCaP-Enza-Res cells; listed as Ranolazine): inhibits growth

CNC(=O)c1ccc(N2C(=S)N(c3ccc(C#N)c(C(F)(F)F)c3)C(=O)C2(C)C)cc1F [enzalutamide]
growth in the presence of enzalutamide (LNCaP-Enza-Res cells; LNCaP-enzalutamide resistant cells versus parental, p<0.001): can grow in the presence of enzalutamide | growth in the presence of enzalutamide compared to parental controls [2]: grow better in the presence of enzalutamide | cell growth of CPT1A-deficient LNCaP clones (LNCaP CPT1A-KD clones): more sensitive to enzalutamide treatment; also recorded: synergistic effect on cell growth | sensitivity to each drug treatment alone (TRAMPC1 cells): not very sensitive

CCOC(=O)[C@@]1(CCCCCCOc2ccc(Cl)cc2)CO1 [etomoxir]
14C-lipid oxidation (PCa cells): able to block 14C-lipid oxidation | glucose uptake (primary PCa cells): momentary increase in glucose uptake | viability compared to matched non-cancerous cells (primary PCa cells): concomitant decrease in viability | growth / viability of PCa cells (PCa cell lines): decrease their growth and died | growth / viability of PCa cells (PCa cell lines; listed as Etomoxir): decreases the viability | growth effect in benign cells (BPH-1 and WPMY-1 cells): not seen | tumor growth (VCaP tumor): Decreased VCaP tumor growth; also recorded: also observed | expression of androgen receptor (AR) and its variant forms (androgen receptor (AR)): significant decrease | sensitivity of mouse prostate cancer cells (TRAMPC1 cells): sensitive | mTOR and downstream effectors S6K and 4EBP-1 (mTOR; etomoxir treatment): decreased mTOR and its downstream effectors S6K and 4EBP-1 | palmitate-containing ceramides (mTOR; etomoxir treatment (not shown)): increased palmitate-containing ceramides | autophagy markers (LC3) (LNCaP cells): increase in autophagy markers (LC3) | markers of ER stress (LNCaP cells; ATF4, GADD34, GRP78, CHOP, p<0.001): increase in markers of ER stress

C1CCC(C(CC2CCCCN2)C2CCCCC2)CC1 (stereo not shown) [perhexiline]
sensitivity of mouse prostate cancer cells (TRAMPC1 cells): sensitive
